For assay [1], the target named is human GLP1R (Homo sapiens, UniProt P43220). Briefly: Human GLP1R DERET internalization assay. In kind it is cell-based. To be noted: HEK293-SNAP-hGLP1R-GloSensor cells; for EC50: mean n=2; for Emax: relative to GLP1(7-36). As to the method: (§1) Compounds 1 to 31 were tested in the following cellular assays that measure the intracellular cAMP concentration, beta-arrestin recruitment and receptor internalization. The cAMP is generated by the activation of GLP1R. The cAMP data obtained is shown in Table 1 (where S.E.M. is included, mean n=3 independent experiments+/−S.E.M). Beta-arrestin is recruited upon activation of GLP1R and the data obtained are shown in Table 2 (mean n=2 independent experiments, +/−S.D). The extent to which the GLP1R is internalized into the cell and away from the plasma membrane following activation is also shown in Table 2 (mean n=2 independent experiments, +/−S.D). EC50 for each assay is defined as the concentration of the compound that leads to half of the maximum response (after baseline correction). Emax is defined as the maximum response observed for the test compound, normalized to the maximum response observed for the endogenous ligand (GLP1(7-36)) to GLP1R.
The extent to which agonists internalize the human GLP1R was determined based on an optimized version of a RealTime FRET-based ‘DERET’ (Dissociation Enhanced Resonance Energy Transfer) assay. The technology relies on labeling of the SNAP-tagged GPCR with a SNAP-Lumi-Terbium (donor fluorophore, Cisbio, cat #SSNPTBD). The compounds are incubated with the cells over-expressing the GPCR of interest in the presence of an excess of fluorescein (acceptor fluorophore). When the GPCR is on the cell surface, the donor signal is quenched by the acceptor and the donor/acceptor ratio is low. As the GPCR internalizes, the donor signal is no longer quenched, and the acceptor is no longer excited so the donor/acceptor ratio increases.
HEK293-SNAP-hGLP1R-GloSensor cells (stably overexpressing SNAP-tagged hGLP1R) were seeded overnight in white 384-well poly-D-Lysine coated plates (Greiner Bio One, cat #781945) in regular DMEM growth medium (Gibco, cat #11965-092, 10% heat-inactivated FBS, 10 mM HEPES, 1× penicillin/streptomycin, 0.5 mg/mL geneticin (Gibco, cat #10131-035) and 0.25 mg/mL hygromycin B (Invitrogen, cat #10687010). On the assay day, cell medium was removed and 100 nM SNAP-Lumi-Tb reagent was added in Opti-MEM solution. The cells were incubated at 37° C. for 1 h. Cells were washed using a plate washer in assay buffer [1×HBSS (10× Gibco, cat #14065-056), 20 mM Hepes (Gibco, cat #15630-080), 1 mM CaCl2 (Fluka, cat #21114-1L), 1 mM MgCl2 (Ambion, cat #AM9530G) pH7.4], and 20 μL buffer with 0.1% BSA was added to each well. After leaving cells to equilibrate for ˜15 min at 37° C., 10 μL of Fluorescein (sodium salt, Sigma, cat #F6377, diluted in buffer) was added at 25 μM final concentration. To generate triplicate dose response curves, compounds were serially diluted 3-fold in assay buffer, then added to the cell assay plate to a final volume of 40 μL and final top concentrations starting at 30 μM. In the same plate and assay buffer as the tested compounds, a GLP1 (7-36) peptide (Bachem, cat #H-6795) control curve was included at a final top concentration of 1 μM in order to establish EC100. EC0 wells with buffer only were also included. The plate FRET fluorescence was measured immediately using a Perkin Elmer Envision with LANCE/DELFIA D400 single mirror, excitation filter X320, and emission filters M615_203 (donor emission) and M515 (acceptor emission), and then measured every 30 min. […] Plates were kept at 37° C. between reads. Data was expressed as the ratio of donor/acceptor emissions using Microsoft Excel and plotted in GraphPad Prism. In order to determine EC50 and Emax for internalization, data was calculated and expressed as percent of the GLP1 (7-36) EC100 control wells: [(sample signal−mean EC0 signal)/(mean EC100 of GLP1 (7-36) signal−mean EC0 signal)]*100 using Microsoft Excel. Curve fitting for EC50 determinations was performed using GraphPad Prism. The 4-parameter logistic model, Hill slope was used:
Y=Bottom+(Top−Bottom)/(1+10^((Log EC50−X)*Hill Slope)), […]

Assay [2] has as its target human GLP1R (hGLP1R) (Homo sapiens, UniProt P43220). The assay is described as follows: Human GLP1R cAMP agonist assay (GloSensor). It is filed as cell-based. To be noted: for Emax: read-out: Emax mean; for EC50: intracellular cAMP, mean n=3 where SEM is given. As for the experimental part: as §1
Human GLP1R cAMP Agonist Assay
The agonist activity of compounds was determined using the GloSensor™ cAMP Assay (Promega Corp.), which measures changes in the intracellular concentration of cAMP after ligand activation of GPCRs. The assay uses a biosensor encoded by pGloSensor™-22F cAMP plasmid (Promega, cat #E2301) with cAMP binding domains fused to a mutant form of Photinus pyralis luciferase. Binding to cAMP causes conformational changes that promote large increases in light output, which can be measured by a luminescence detector. HEK293-SNAP-hGLP1R-GloSensor cells stably overexpressing the human GLP1 receptor (hGLP1R) and pGloSensor™-22F were seeded in white 384-well poly-D-Lysine coated plates (Greiner Bio One, cat #781945) in CO2-independent media (Gibco cat #18045-088 with 1.0% FBS, 2 mM L-glutamine, penicillin and streptomycin) and incubated overnight at 37° C., 5% CO2 with humidity. The assay was started the following morning by adding an equal volume of CO2-independent media containing 4% v/v dilution of the GloSensor substrate (Promega, cat #E1291) to all wells. The cell plate was incubated at rt for 2 h in the dark. The Biomek 7 (Beckman Coulter) instrument was used for the liquid handling steps. To generate duplicate dose response curves, 3-fold serially diluted compounds were added in to the cell assay plate to a final volume of 60 μL with final concentrations ranging from 30 μM through 0.06 μM in CO2-independent media containing 0.1% BSA, 0.5 mM IBMX and 0.4% DMSO. In the same plate and assay buffer as the tested compounds, were EC100 control wells containing GLP1 (7-36) peptide (Bachem, cat #H-6795) at a final concentration of 2 nM and also EC0 control wells containing no peptide. This plate was incubated at rt in the dark for 12 min after adding the compounds to the cells. Luminescence was then measured with an Envision 2104 Multilabel reader with “TRF Light Unit, 337 nm” (PerkinElmer) using the Ultra-Sensitive protocol setting “384-well US luminescence detector” with the 384-well luminescence aperture, 0.1 seconds per well. cAMP activity was calculated as percent of the GLP1 (7-36) EC100 control wells: [(sample signal−mean EC0 signal)/(mean EC100 of GLP1 (7-36) signal−mean EC0 signal)}*100. Curve fitting for EC50 determinations was performed in the Helios module of the software package DAVID. The 4-parameter logistic model, Hill slope was used: y=Ainf+(A0−Ainf)/(1+(x/AC50)^Hill Slope) where y is the functional response; x is the compound concentration; A0 is the minimum value (at 0 dose); Ainf is the maximum value (at infinite dose); AC50 corresponds to the point of inflection (i.e. the point on the sigmoid shaped curve halfway between A0 and Ainf). The EC50 value was represented by the AC50 value calculated from Helios in μM. Emax is the maximal activity detected within the concentration range, derived from the fitted curve. […]

The mark [3] stands for this setting: HEK293-SNAP-hGLP1R-GloSensor cells, cAMP, normalized to GLP1(7-36) maximum response.
Setting [4] is: HEK293-SNAP-hGLP1R-GloSensor cells.

Drawing on patent US20240182456A1, “2-((4-((S)-2-(4-CHLORO-2-FLUOROPHENYL)-2-METHYLBENZO[D][1,3]DIOXOL-4-YL)PIPERIDIN-1-YL)METHYL)-1-(((S)-OXETAN-2-YL)METHYL)-1H-IMIDAZOLE DERIVATIVES AS ACTIVATORS OF THE GLP1 RECEPTOR FOR THE TREATMENT OF OBESITY” (Novartis AG, priority 2021, published 2024), this text covers EC50 and Emax for 9 compounds.

Each structure is given as a SMILES string. Where two headings read alike, the source gives them in different places.

By EC50 is commonly meant the concentration needed to bring the measured effect to its halfway point. Low values mean higher potency in that assay, high ones lower potency in that assay. By Emax is commonly meant the maximal effect, on the per cent scale that the assay sets.

human GLP1R, sequence (P43220 24-463): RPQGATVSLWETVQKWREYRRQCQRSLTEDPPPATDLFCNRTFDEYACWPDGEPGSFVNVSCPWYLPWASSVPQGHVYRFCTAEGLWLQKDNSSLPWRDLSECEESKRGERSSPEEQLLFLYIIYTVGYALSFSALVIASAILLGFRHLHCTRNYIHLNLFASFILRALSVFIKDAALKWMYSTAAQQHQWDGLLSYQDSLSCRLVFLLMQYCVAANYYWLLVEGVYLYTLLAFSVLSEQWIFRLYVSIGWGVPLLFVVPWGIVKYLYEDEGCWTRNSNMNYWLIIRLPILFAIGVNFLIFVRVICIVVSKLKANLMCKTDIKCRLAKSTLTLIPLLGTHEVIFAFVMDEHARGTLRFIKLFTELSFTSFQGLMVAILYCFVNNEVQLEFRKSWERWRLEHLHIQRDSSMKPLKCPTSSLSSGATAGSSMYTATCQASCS
human GLP1R (hGLP1R), sequence (P43220 24-463): as above

As for `Cc1nc(CN2CCC(c3cccc4c3O[C@@](C)(c3ccc(Cl)cc3F)O4)CC2)n(C[C@@H]2CCO2)c1C(=O)NCC(=O)O` [Compound C-16, (2-((4-((S)-2-(4-chloro-2-fluorophenyl)-2-methylbenzo[d][1,3]dioxol-4-yl)piperidin-1-yl)methyl)-4-methyl-1-(((S)-oxetan-2-yl)methyl)-1H-imidazole-5-carbonyl)glycine], the EC50 is more than 30000 nM in assay [1] and 8.49 nM in assay [2] (setting [4]). Moreover, the values for the Emax in assay [1] and in assay [2] (setting [3]) were 8% and 105%, respectively.

In the case of `Cc1nc(CN2CCC(c3cccc4c3O[C@@](C)(c3ccc(Cl)cc3F)O4)CC2)n(C[C@@H]2CCO2)c1CC(F)C(=O)O` (stereo partly drawn) [Compound C-15, 3-(2-((4-((S)-2-(4-chloro-2-fluorophenyl)-2-methylbenzo[d][1,3]dioxol-4-yl)piperidin-1-yl)methyl)-4-methyl-1-(((S)-oxetan-2-yl)methyl)-1H-imidazol-5-yl)-2-fluoropropanoic acid], the EC50 in assay [1] was more than 30000 nM; in assay [2] (setting [4]), 0.253 nM. For the same compound, the Emax in assay [1] was 41%; in assay [2] (setting [3]), 109%.

As to `C[C@]1(c2ccc(Cl)cc2F)Oc2cccc(C3CCN(Cc4nc(C(F)(F)F)c(/C=C/C(=O)O)n4C[C@@H]4CCO4)CC3)c2O1` [Compound C-8, (E)-3-(2-((4-((S)-2-(4-chloro-2-fluorophenyl)-2-methylbenzo[d][1,3]dioxol-4-yl)piperidin-1-yl)methyl)-1-(((S)-oxetan-2-yl)methyl)-4-(trifluoromethyl)-1H-imidazol-5-yl)acrylic acid], the figures for the EC50 in assay [1] and in assay [2] (setting [4]) were more than 30000 nM and 0.0606 nM, respectively. Further, the Emax is 9.5% in assay [1] and 108% in assay [2] (setting [3]).

As to `Cc1c(-c2nc(=O)o[nH]2)nc(CN2CCC(c3cccc4c3O[C@@](C)(c3ccc(Cl)cc3F)O4)CC2)n1C[C@@H]1CCO1` [Compound C-21, 3-(2-((4-((S)-2-(4-chloro-2-fluorophenyl)-2-methylbenzo[d][1,3]dioxol-4-yl)piperidin-1-yl)methyl)-5-methyl-1-(((S)-oxetan-2-yl)methyl)-1H-imidazol-4-yl)-1,2,4-oxadiazol-5(2H)-one], the EC50 in assay [1] came out at 1790 nM; in assay [2] (setting [4]) it was 0.297 nM. In addition, the figures for the Emax in assay [1] and in assay [2] (setting [3]) were 13% and 104%, respectively.

With `Cc1c(-c2cncc(C(=O)O)c2)nc(CN2CCC(c3cccc4c3O[C@@](C)(c3ccc(Cl)cc3F)O4)CC2)n1C[C@@H]1CCO1` [Compound C-12, 5-(2-((4-((S)-2-(4-chloro-2-fluorophenyl)-2-methylbenzo[d][1,3]dioxol-4-yl)piperidin-1-yl)methyl)-5-methyl-1-(((S)-oxetan-2-yl)methyl)-1H-imidazol-4-yl)nicotinic acid], the half-maximal effective concentration (EC50) was more than 30000 nM in assay [1] and 0.6 nM in assay [2] (setting [4]). Also, the Emax in assay [1] turned out to be 10%; in assay [2] (setting [3]), 113%.

Take `C[C@]1(c2ccc(Cl)cc2F)Oc2cccc(C3CCN(Cc4nc(C(F)(F)F)c(-c5nnn[nH]5)n4C[C@@H]4CCO4)CC3)c2O1` [Compound C-24, 4-((S)-2-(4-chloro-2-fluorophenyl)-2-methylbenzo[d][1,3]dioxol-4-yl)-1-((1-(((S)-oxetan-2-yl)methyl)-5-(1H-tetrazol-5-yl)-4-(trifluoromethyl)-1H-imidazol-2-yl)methyl)piperidine]: the EC50 in assay [1] is more than 30000 nM; in assay [2] (setting [4]) it was 0.784 nM. In addition, the Emax was -3% in assay [1] and 112% in assay [2].

For `Cc1nc(CN2CCC(c3cccc4c3O[C@@](C)(c3ccc(Cl)cc3F)O4)CC2)n(C[C@@H]2CCO2)c1CCC(=O)O` [Compound C-14, 3-(2-((4-((S)-2-(4-chloro-2-fluorophenyl)-2-methylbenzo[d][1,3]dioxol-4-yl)piperidin-1-yl)methyl)-4-methyl-1-(((S)-oxetan-2-yl)methyl)-1H-imidazol-5-yl)propanoic acid], the results for the EC50 in assay [1] and in assay [2] (setting [4]) were 3370 nM and 0.254 nM, respectively. Besides, the values for the Emax in assay [1] and in assay [2] (setting [3]) were 28% and 107%, respectively.

For `Cc1nc(CN2CCC(c3cccc4c3O[C@@](C)(c3ccc(Cl)cc3F)O4)CC2)n(C[C@@H]2CCO2)c1/C=C(/F)C(=O)O` [Compound C-19a, (E)-3-(2-((4-((S)-2-(4-chloro-2-fluorophenyl)-2-methylbenzo[d][1,3]dioxol-4-yl)piperidin-1-yl)methyl)-4-methyl-1-(((S)-oxetan-2-yl)methyl)-1H-imidazol-5-yl)-2-fluoroacrylic acid], the EC50 in assay [1] worked out at 86 nM; in assay [2] (setting [4]), 0.0137 nM. Moreover, the Emax worked out at 27% in assay [1] and 110% in assay [2] (setting [3]).

Consider `Cc1c(-c2cccc(C(=O)O)c2)nc(CN2CCC(c3cccc4c3O[C@@](C)(c3ccc(Cl)cc3F)O4)CC2)n1C[C@@H]1CCO1` [Compound C-10, 3-(2-((4-((S)-2-(4-chloro-2-fluorophenyl)-2-methylbenzo[d][1,3]dioxol-4-yl)piperidin-1-yl)methyl)-5-methyl-1-(((S)-oxetan-2-yl)methyl)-1H-imidazol-4-yl)benzoic acid], for which the EC50 in assay [1] was more than 30000 nM; in assay [2] (setting [4]), 0.898 nM. The figures for the Emax in assay [1] and in assay [2] (setting [3]) were 2% and 107%, respectively.
